This passage reports IC50 results from patent US20170066759A1, “AROMATIC 5-MEMBERED HETEROCYCLIC DERIVATIVE HAVING TRPV4-INHIBITING ACTIVITY” (Shionogi & Co., Ltd., priority 2012, published 2017).

Molecules are shown by their SMILES.

This test deals with T1, human TRPV4 (hTRPV4/CHO cells) (Homo sapiens, UniProt Q9HBA0).
T1 construct: expressed in transfected cells; host or cells: CHO-K1
T1 sequence (Q9HBA0 whole entry): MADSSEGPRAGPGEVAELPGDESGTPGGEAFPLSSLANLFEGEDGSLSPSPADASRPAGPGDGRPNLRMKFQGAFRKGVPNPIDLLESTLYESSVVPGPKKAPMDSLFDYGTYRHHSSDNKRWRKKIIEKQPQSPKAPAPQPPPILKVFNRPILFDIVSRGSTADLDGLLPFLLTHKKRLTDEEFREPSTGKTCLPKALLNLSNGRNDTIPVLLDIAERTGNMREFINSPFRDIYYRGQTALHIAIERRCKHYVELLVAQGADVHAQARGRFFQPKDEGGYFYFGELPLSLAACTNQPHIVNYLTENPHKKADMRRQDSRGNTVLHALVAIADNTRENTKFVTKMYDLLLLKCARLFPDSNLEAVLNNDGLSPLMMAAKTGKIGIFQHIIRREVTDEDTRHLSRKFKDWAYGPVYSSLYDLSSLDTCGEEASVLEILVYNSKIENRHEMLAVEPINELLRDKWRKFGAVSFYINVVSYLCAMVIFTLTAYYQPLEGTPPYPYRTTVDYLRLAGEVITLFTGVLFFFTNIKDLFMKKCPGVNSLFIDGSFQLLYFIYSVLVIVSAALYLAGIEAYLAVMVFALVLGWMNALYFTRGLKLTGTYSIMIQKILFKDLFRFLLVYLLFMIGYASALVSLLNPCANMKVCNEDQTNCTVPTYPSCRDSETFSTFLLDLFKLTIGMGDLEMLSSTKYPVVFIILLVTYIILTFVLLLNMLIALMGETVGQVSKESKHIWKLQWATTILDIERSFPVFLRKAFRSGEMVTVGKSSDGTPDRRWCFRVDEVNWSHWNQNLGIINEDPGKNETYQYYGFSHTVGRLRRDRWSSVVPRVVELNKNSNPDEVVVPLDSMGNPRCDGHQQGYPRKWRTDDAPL
Nature of the test: Test Example 1: TRPV4 inhibitory activity (IC50 value), 4α-PDD stimulation, Fluo4 calcium fluorescence (FLIPR TETRA). The following applies: Test Example 1, 4α-PDD stimulation, read-out: Test 1 IC50. The test is classed as cell-based.
With `Cc1nc(CO)sc1-c1csc(NC(=O)C2CCN(Cc3ccccc3)C2)n1` (stereo not shown) [Compound I-209], the half-maximal inhibitory concentration (IC50) (usually the concentration that inhibits the measured activity by half) fell in the range of 1 to 8 µM.
The value for `Cc1nc(C)c(-c2csc(NC(=O)[C@@H]3C[C@@H](c4ccccc4)CN3C(=O)OC(C)(C)C)n2)s1` [Compound I-210] was less than 0.1 µM.
The value for `Cc1nc(C)c(-c2csc(NC(=O)[C@H]3CC[C@@H](c4ccccc4)N3C(=O)OC(C)(C)C)n2)s1` [Compound I-211] was 0.1 to 1 µM; that for `Cc1nc(C)c(-c2csc(NC(=O)[C@@H]3CC[C@H](c4ccccc4)N3C(=O)OC(C)(C)C)n2)s1` [Compound I-212] was less than 0.1 µM.
Regarding `Cc1nc(CO)sc1-c1csc(NC(=O)C2CCN(CC(F)(F)F)C2)n1` (stereo not shown) [Compound I-213], the IC50 lay in the range of 0.1 to 1 µM.
For `Cc1nc(CO)sc1-c1csc(NC(=O)C2CCN(S(=O)(=O)C(F)(F)F)C2)n1` (stereo not shown) [Compound I-214] the value was 0.1 to 1 µM; for `Cc1nc(C)c(-c2csc(NC(=O)[C@H]3CC[C@@H](c4ccccc4)N3)n2)s1` [Compound I-215], 0.1 to 1 µM.
The value for `Cc1nc(C)c(-c2csc(NC(=O)[C@@H]3CC[C@H](c4ccccc4)N3)n2)s1` [Compound I-216] was 0.1 to 1 µM; that for `Cc1nc(C)c(-c2csc(NC(=O)[C@@H]3C[C@@H](c4ccccc4)CN3C)n2)s1` [Compound I-217] was 1 to 8 µM.
The value for `Cc1nc(C)c(-c2csc(NC(=O)[C@@H]3C[C@@H](c4ccccc4)CN3C(=O)C(F)(F)F)n2)s1` [Compound I-218] was less than 0.1 µM.
For `CCN(CC)Cc1nc(CO)sc1-c1csc(NC(=O)Cc2ccc(S(=O)(=O)C(F)(F)F)cc2)n1` [Compound I-236], the half-maximal inhibitory concentration (IC50) fell in the range of 0.1 to 1 µM.
The value for `CCNCc1nc(CO)sc1-c1csc(NC(=O)Cc2ccc(S(=O)(=O)C(F)(F)F)cc2)n1` [Compound I-237] was 0.1 to 1 µM; that for `Cc1nc(CO)sc1-c1csc(NC(=O)C2CC(OCc3ccncc3)C2)n1` (stereo not shown) [Compound I-240] was 1 to 8 µM.
The value for `Cc1nc(CO)sc1-c1csc(NC(=O)CN2Cc3ccccc3C2)n1` [Compound I-241] was 0.1 to 1 µM; that for `Cc1nc(C)c(-c2csc(NC(=O)[C@@H]3C[C@@H](Oc4ccccc4)CN3C(=O)OC(C)(C)C)n2)s1` [Compound I-242] was less than 0.1 µM.
The value for `Cc1nc(C)c(-c2csc(NC(=O)[C@H]3C[C@@H](c4ccccc4)CN3C(=O)OC(C)(C)C)n2)s1` [Compound I-243] was 0.1 to 1 µM.
For the molecule `Cc1nc(C)c(-c2csc(NC(=O)[C@@H]3C[C@@H](Oc4ccccc4)CN3)n2)s1` [Compound I-244], the IC50 lay within 0.1 to 1 µM.
The value for `Cc1nc(C)c(-c2csc(NC(=O)[C@H]3C[C@H](c4ccccc4)CN3C(=O)OC(C)(C)C)n2)s1` [Compound I-245] was less than 0.1 µM; that for `Cc1nc(C)c(-c2csc(NC(=O)[C@@H]3C[C@H](c4ccccc4)CN3C(=O)OC(C)(C)C)n2)s1` [Compound I-246] was less than 0.1 µM; that for `Cc1nc(CO)sc1-c1csc(NC(=O)C2CC(OCc3cccnc3)C2)n1` (stereo not shown) [Compound I-247] was 1 to 8 µM.
For the molecule `O=C(Nc1nc(-c2sc(CO)nc2CO)cs1)[C@H]1C[C@H](F)C1` [Compound I-248], the IC50 fell in the range of 1 to 8 µM.
The value for `Cc1nc(C)c(-c2csc(NC(=O)[C@@H]3CCCN3C(=O)OC(C)(C)C)n2)s1` [Compound I-249] was 0.1 to 1 µM; that for `Cc1nc(C)c(-c2csc(NC(=O)[C@@H]3C[C@@H](Oc4ccccc4)CN3C(=O)C(F)(F)F)n2)s1` [Compound I-250] was less than 0.1 µM.
For `CC(=O)N1C[C@H](Oc2ccccc2)C[C@H]1C(=O)Nc1nc(-c2sc(C)nc2C)cs1` [Compound I-251] the value was 1 to 8 µM; for `Cc1nc(C)c(-c2csc(NC(=O)[C@@H]3C[C@@H](Oc4ccccc4)CN3C(=O)CO)n2)s1` [Compound I-252], 1 to 8 µM; for `O=C(Nc1nc(-c2sc(CO)nc2CO)cs1)C1CCC(C(F)(F)F)CC1` (stereo not shown) [Compound I-253], 0.1 to 1 µM.
For `O=C(Nc1nc(-c2sc(CO)nc2CO)cs1)C1CCC(C(F)(F)F)CC1` (stereo not shown) [Compound I-254] the value was less than 0.1 µM.
Take `NC(=O)c1nc(CO)c(-c2csc(NC(=O)Cc3ccc(S(=O)(=O)C(F)(F)F)cc3)n2)s1` [Compound I-255]: the IC50 lay in the range of 1 to 8 µM.
Take `Cc1nc(C)c(-c2csc(NC(=O)C3CN(C(=O)c4ccccc4)C3)n2)s1` [Compound I-256]: the IC50 was in the range of 1 to 8 µM.
On to `Cc1nc(C)c(-c2csc(NC(=O)C3CN(C(=O)c4ccc(C(F)(F)F)cc4)C3)n2)s1` [Compound I-257], for which the half-inhibitory concentration (IC50) lay within 0.1 to 1 µM.
The value for `Cc1nc(C)c(-c2csc(NC(=O)C3CN(Cc4ccc(C(F)(F)F)cc4)C3)n2)s1` [Compound I-258] was less than 0.1 µM.
The value for `Cc1nc(C)c(-c2csc(NC(=O)C3CN(c4ccc(C(F)(F)F)cn4)C3)n2)s1` [Compound I-259] was less than 0.1 µM; that for `Cc1nc(C)c(-c2csc(NC(=O)C3CN(Cc4ccccc4C(F)(F)F)C3)n2)s1` [Compound I-260] was less than 0.1 µM.
For `COC(=O)c1ccc(C(=O)N2CC(C(=O)Nc3nc(-c4sc(C)nc4C)cs3)C2)cc1` [Compound I-261] the value was 0.1 to 1 µM.
For `Cc1nc(C)c(-c2csc(NC(=O)C3CN(Cc4cccc(C(F)(F)F)c4)C3)n2)s1` [Compound I-262], the IC50 is less than 0.1 µM.
Consider `COC(=O)c1ccc(CN2CC(C(=O)Nc3nc(-c4sc(C)nc4C)cs3)C2)cc1` [Compound I-263], for which the IC50 lay in the range of 0.1 to 1 µM.
For `Cc1nc(C)c(-c2csc(NC(=O)C3CN(S(=O)(=O)c4ccc(C(F)(F)F)cc4)C3)n2)s1` [Compound I-264] the value was less than 0.1 µM.
For `Cc1nc(C)c(-c2csc(NC(=O)[C@H](Cc3ccccc3)NC(=O)OC(C)(C)C)n2)s1` [Compound I-265] the value was 0.1 to 1 µM; for `Cc1nc(C)c(-c2csc(NC(=O)[C@H](CCc3ccccc3)NC(=O)OC(C)(C)C)n2)s1` [Compound I-266], 0.1 to 1 µM; for `Cc1nc(CO)sc1-c1csc(NC(=O)C2CC(=O)C2)n1` [Compound I-267], 1 to 8 µM.
The value for `CO[C@H]1C[C@H](C(=O)Nc2nc(-c3sc(C)nc3C)cs2)C1` [Compound I-268] was 0.1 to 1 µM; that for `CO[C@H]1C[C@@H](C(=O)Nc2nc(-c3sc(C)nc3C)cs2)C1` [Compound I-269] was 1 to 8 µM; that for `CCOC(=O)c1nc(C)c(-c2csc(NC(=O)C3Oc4cc(Cl)c(Cl)cc4O3)n2)s1` [Compound I-270] was 0.1 to 1 µM.
For the molecule `Cc1nc(C)c(-c2csc(NC(=O)[C@@H]3C[C@H](c4ccccc4)CN3C(=O)C(F)(F)F)n2)s1` [Compound I-271], the half-inhibitory concentration (IC50) is less than 0.1 µM.
The value for `Cc1nc(C)c(-c2csc(NC(=O)[C@@H]3C[C@@H](N4CCC(c5ccccc5)CC4)CN3C(=O)OC(C)(C)C)n2)s1` [Compound I-272] was less than 0.1 µM; that for `Cc1nc(CO)sc1-c1csc(NC(=O)C2Oc3cc(Cl)c(Cl)cc3O2)n1` [Compound I-273] was less than 0.1 µM; that for `Cc1nc(C)c(-c2csc(NC(=O)[C@@H]3C[C@@H](N4CCC(c5ccccc5)CC4)CN3)n2)s1` [Compound I-274] was 1 to 8 µM.
For `Cc1nc(C)c(-c2csc(NC(=O)[C@@H]3C[C@@H](N4CCCCC4)CN3C(=O)OC(C)(C)C)n2)s1` [Compound I-275] the value was 1 to 8 µM.
For `Cc1nc(C)c(-c2csc(NC(=O)[C@@H]3C[C@@H](N4CCC(c5ccccc5)CC4)CN3C(=O)C(F)(F)F)n2)s1` [Compound I-276] the value was less than 0.1 µM; for `Cc1nc(CO)sc1-c1csc(NC(=O)[C@@H]2C[C@@H](c3ccccc3)CN2C(=O)OC(C)(C)C)n1` [Compound I-277], less than 0.1 µM; for `Cc1nc(C)c(-c2csc(NC(=O)C3CN(c4ncc(C(F)(F)F)cn4)C3)n2)s1` [Compound I-278], less than 0.1 µM.
Turning to `CCOC(=O)C(C)(C)N1CC(C(=O)Nc2nc(-c3sc(C)nc3C)cs2)C1` [Compound I-279], the 50% inhibitory concentration (IC50) is 1 to 8 µM.
For `Cc1nc(C)c(-c2csc(NC(=O)C3CN(c4ccccc4C(F)(F)F)C3)n2)s1` [Compound I-280] the value was less than 0.1 µM; for `Cc1nc(C)c(-c2csc(NC(=O)C3CN(CC(F)(F)F)C3)n2)s1` [Compound I-281], 0.1 to 1 µM.
For `Cc1nc(C)c(-c2csc(NC(=O)C3CN(Cc4ccc(C(F)(F)F)nc4)C3)n2)s1` [Compound I-282] the value was 0.1 to 1 µM; for `COc1ccc(CN2CC(C(=O)Nc3nc(-c4sc(C)nc4C)cs3)C2)cn1` [Compound I-283], 1 to 8 µM; for `Cc1nc(C)c(-c2csc(NC(=O)C3CN(c4ccc(C(F)(F)F)nn4)C3)n2)s1` [Compound I-284], 0.1 to 1 µM.
Turning to `Cc1nc(C)c(-c2csc(NC(=O)C3CN(c4ccc(-c5ccccc5)nn4)C3)n2)s1` [Compound I-285], the IC50 was in the range of 0.1 to 1 µM.
The value for `Cc1nc(C)c(-c2csc(NC(=O)C3CN(c4ccc(C(F)(F)F)nc4)C3)n2)s1` [Compound I-286] was less than 0.1 µM.
Regarding `COC(=O)N1C[C@H](c2ccccc2)C[C@H]1C(=O)Nc1nc(-c2sc(C)nc2C)cs1` [Compound I-288], the half-inhibitory concentration (IC50) is less than 0.1 µM.
The value for `CC(=O)N1C[C@H](c2ccccc2)C[C@H]1C(=O)Nc1nc(-c2sc(C)nc2C)cs1` [Compound I-289] was 0.1 to 1 µM; that for `Cc1nc(CO)sc1-c1csc(NC(=O)[C@@H]2C[C@@H](c3ccccc3)CN2C(=O)C(F)(F)F)n1` [Compound I-290] was less than 0.1 µM.
With `Cc1nc(C)c(-c2csc(NC(=O)[C@@H]3C[C@@H](c4ccccc4)CN3C(=O)C(C)C)n2)s1` [Compound I-291], the IC50 fell in the range of 0.1 to 1 µM.
Regarding `Cc1nc(C)c(-c2csc(NC(=O)[C@@H]3C[C@@H](c4ccccc4)CN3CC(F)(F)F)n2)s1` [Compound I-292], the half-inhibitory concentration (IC50) was less than 0.1 µM.
The value for `Cc1nc(C)c(-c2csc(NC(=O)[C@@H]3C[C@H](Oc4ccc(Cl)cc4)CN3C(=O)OC(C)(C)C)n2)s1` [Compound I-293] was less than 0.1 µM.
In the case of `Cc1nc(C)c(-c2csc(NC(=O)[C@@H]3C[C@@H](c4ccccc4)CN3C=[N+](C)C)n2)s1` [Compound I-294], the IC50 lay within 1 to 8 µM.
For `Cc1nc(C(C)O)sc1-c1csc(NC(=O)C2CCN(c3ccccc3)C2)n1` (stereo not shown) [Compound I-295] the value was 0.1 to 1 µM.
